According to the OPERA property sets (Mansouri et al. 2018):
≈ marks a conversion by molar mass, not a printed value.

Details: for solubility: 25 °C

Row | SMILES | logP | solubility [µM]
1 | COc1c(Cl)cccc1Cl | 3.14 | 791 (≈ 140 µg/mL)
2 | COc1cccc(Cl)c1 |  | 1650 (≈ 235 µg/mL)
3 | COc1cc(Cl)c(Cl)cc1OC | 3.11 | 348 (≈ 72 µg/mL)
4 | COc1cccc(Cl)c1Cl | 3.24 | 491 (≈ 86.9 µg/mL)

The next lines start with the values.

Row | logP | solubility [µM] | SMILES
5 | 4.01 | 42.6 (≈ 10.3 µg/mL) | COc1cc(Cl)c(Cl)c(Cl)c1OC
6 |  | 7.4 (≈ 1.82 µg/mL) | COc1c(Cl)c(Cl)cc(Cl)c1Cl
7 |  | 51.1 (≈ 10.8 µg/mL) | COc1ccc(Cl)c(Cl)c1Cl
8 |  | 5.49 (≈ 1.35 µg/mL) | COc1cc(Cl)c(Cl)c(Cl)c1Cl
9 | 4.86 | 5.76 (≈ 1.59 µg/mL) | COc1c(Cl)c(Cl)c(Cl)c(Cl)c1OC
